Assay results published in patent publication US9120784B2, “1,3,4-oxadiazoles-2-thio azetidine derivatives as sphingosine-1 phosphate receptors modulators” (Allergan, Inc., priority 2012, dated 2015).

Molecular target: T1, human S1P1 receptor (Homo sapiens, UniProt P21453)
T1 construct: expressed in transfected cells; membranes used
Test: GTP γ35S binding assay for S1P1 activity
Type: biochemical
Conditions: membranes of cells stably expressing the S1P1 receptor, test compound 0.08 to 5,000 nM, read-out: S1P1 EC50 (nM) % inhibition
Method: Compounds were synthesized and tested for S1P1 activity using the GTP γ^35S binding assay. These compounds may be assessed for their ability to activate or block activation of the human S1P1 receptor in cells stably expressing the S1P1 receptor.
GTP γ^35S binding was measured in the medium containing (mM) HEPES 25, pH 7.4, MgCl2 10, NaCl 100, dithiothreitol 0.5, digitonin 0.003%, 0.2 nM GTP γ^35S, and 5 μg membrane protein in a volume of 150 μl. Test compounds were included in the concentration range from 0.08 to 5,000 nM unless indicated otherwise. Membranes were incubated with 100 μM 5′-adenylylimidodiphosphate for 30 min, and subsequently with 10 μM GDP for 10 min on ice. Drug, solutions and membrane were mixed, and then reactions were initiated by adding GTP γ^35S and continued for 30 min at 25° C. Reaction mixtures were filtered over Whatman CF/B filters under vacuum, and washed three times with 3 mL of ice-cold buffer (HEPES 25, pH7.4, MgCl2 10 and NaCl 100). Filters were dried and mixed with scintillant, and counted for ^35S activity using […]. Agonist-induced GTP γ^35S binding was obtained by subtracting that in the absence of agonist. Binding data were analyzed using a non-linear regression method. In case of antagonist assay, the reaction mixture contained 10 nM […] in the presence of test antagonist at concentrations ranging from 0.08 to 5000 nM.

T1 sequence (P21453 whole entry): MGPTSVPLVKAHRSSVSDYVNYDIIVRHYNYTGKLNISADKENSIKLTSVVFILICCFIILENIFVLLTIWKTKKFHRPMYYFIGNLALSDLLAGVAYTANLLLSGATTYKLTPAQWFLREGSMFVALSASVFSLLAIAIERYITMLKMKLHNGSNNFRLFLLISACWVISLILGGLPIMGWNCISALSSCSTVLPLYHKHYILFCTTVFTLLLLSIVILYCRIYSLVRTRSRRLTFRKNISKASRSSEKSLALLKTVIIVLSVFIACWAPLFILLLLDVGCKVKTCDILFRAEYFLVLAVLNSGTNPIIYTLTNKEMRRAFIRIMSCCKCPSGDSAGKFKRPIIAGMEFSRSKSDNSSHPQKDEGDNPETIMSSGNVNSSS

EC50: 22.9 nM
SMILES: Cc1ccc(-c2nnc(SC(C)c3ccc(CN4CC(C(=O)O)C4)cc3)o2)cc1C (stereo not shown) [Compound 1, 1-[4-(1-{[5-(3,4-Dimethylphenyl)-1,3,4-oxadiazol-2-yl]thio}ethyl)benzyl]azetidine-3-carboxylic acid]
